Assay [1] in a line: HepG2 cell cytotoxicity, dose response, cytotoxicity control for non-replicating M. tuberculosis project (AID 489018). Format: functional. To be noted: Mycobacterium tuberculosis.
Assay [2] addresses T1, Serine/threonine-protein phosphatase (Candida dubliniensis (strain CD36 / CBS 7987 / NCPF 3949 / NRRLY-17841) (Yeast), UniProt B9W6M3).
T1 sequence (B9W6M3 whole entry): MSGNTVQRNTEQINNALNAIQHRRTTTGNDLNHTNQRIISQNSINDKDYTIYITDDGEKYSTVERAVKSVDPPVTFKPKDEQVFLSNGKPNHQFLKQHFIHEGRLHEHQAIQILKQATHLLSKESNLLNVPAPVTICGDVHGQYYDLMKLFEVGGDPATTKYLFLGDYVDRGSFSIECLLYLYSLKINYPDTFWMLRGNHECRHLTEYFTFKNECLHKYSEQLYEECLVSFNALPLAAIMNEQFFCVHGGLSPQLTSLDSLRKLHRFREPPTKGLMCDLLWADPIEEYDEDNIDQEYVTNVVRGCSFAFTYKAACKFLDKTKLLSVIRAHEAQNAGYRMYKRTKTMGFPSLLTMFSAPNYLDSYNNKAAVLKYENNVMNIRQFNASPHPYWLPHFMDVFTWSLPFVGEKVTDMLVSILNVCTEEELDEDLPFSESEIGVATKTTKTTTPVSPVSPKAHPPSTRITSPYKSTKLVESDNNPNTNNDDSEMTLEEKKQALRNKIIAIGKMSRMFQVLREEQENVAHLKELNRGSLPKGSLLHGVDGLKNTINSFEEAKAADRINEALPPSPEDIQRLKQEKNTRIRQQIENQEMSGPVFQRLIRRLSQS
Kind of assay: Fluorescence Cell-Based Secondary Assay to Identify Inhibitors of Calcineurin. [Related pubchem assays (depositor defined):AID1979, AID2007]. It counts as functional.

The target of assay [3] is T2, Short transient receptor potential channel 4 (Mus musculus, UniProt Q9QUQ5).
T2 sequence (Q9QUQ5 whole entry): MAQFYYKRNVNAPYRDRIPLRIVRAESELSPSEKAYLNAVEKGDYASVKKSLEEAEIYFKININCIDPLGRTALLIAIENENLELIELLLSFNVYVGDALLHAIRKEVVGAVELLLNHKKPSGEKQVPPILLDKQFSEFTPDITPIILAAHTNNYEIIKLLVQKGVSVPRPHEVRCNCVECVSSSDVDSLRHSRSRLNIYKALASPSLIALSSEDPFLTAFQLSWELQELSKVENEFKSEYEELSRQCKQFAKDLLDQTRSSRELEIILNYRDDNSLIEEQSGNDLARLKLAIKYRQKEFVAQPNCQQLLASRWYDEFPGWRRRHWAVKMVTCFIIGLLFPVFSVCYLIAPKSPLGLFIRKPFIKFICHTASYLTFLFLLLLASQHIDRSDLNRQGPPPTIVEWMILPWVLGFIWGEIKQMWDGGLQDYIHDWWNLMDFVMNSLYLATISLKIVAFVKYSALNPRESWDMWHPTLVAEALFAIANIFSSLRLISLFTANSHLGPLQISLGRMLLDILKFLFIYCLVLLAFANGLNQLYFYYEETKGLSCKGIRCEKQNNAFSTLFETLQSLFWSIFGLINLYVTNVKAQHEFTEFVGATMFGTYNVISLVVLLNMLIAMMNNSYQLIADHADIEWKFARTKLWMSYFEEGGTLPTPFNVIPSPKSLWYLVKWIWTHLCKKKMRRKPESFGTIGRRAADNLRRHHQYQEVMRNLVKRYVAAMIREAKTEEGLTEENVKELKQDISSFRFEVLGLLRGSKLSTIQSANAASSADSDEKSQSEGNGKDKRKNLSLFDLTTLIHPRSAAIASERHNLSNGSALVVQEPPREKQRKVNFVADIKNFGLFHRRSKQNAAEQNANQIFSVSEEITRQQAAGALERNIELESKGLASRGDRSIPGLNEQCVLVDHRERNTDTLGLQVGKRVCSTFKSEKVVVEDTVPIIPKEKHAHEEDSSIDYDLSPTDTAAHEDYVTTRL
Kind of assay: calcium entry via TRPC4 opening agents – cell-based, HEK293 TRPC4/mu-opioid, Fluo-4 calcium, dose response (AID 434937). Format: functional.

A short description of assay [4]: fluconazole-exposed Candida albicans growth modulators – fluorescence, retest, confirmation (AID 2467). Format: functional, cell-based.
Assay [5] has as its target ATP-dependent molecular chaperone HSP82 (Candida albicans (strain WO-1) (Yeast), UniProt C4YTQ8). Briefly: steroid-induced GRE reporter decrease in yeast – S. cerevisiae, luminescence, Hsp90 inhibitor project, dose response (AID 2400).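 Also: beta-galactosidase luminescence from glucocorticoid response element reporter as proxy for Hsp90 function; inhibitor potency where signal loss means Hsp90 inhibition.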 It counts as functional, cell-based.
The nature of assay [6]: NIH-3T3 fibroblast cytotoxicity, dose response, cytotoxicity control, cell-based, fluorescence, Alamar Blue, secondary assay (AID 2327).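 Also: NIH-3T3 mouse fibroblasts cultured with fluconazole at 8 µg/mL.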 Format: functional. A general note: The colour change of resazurin is a common sign of viable cells or microbes.
Assay [7] can be described thus: Vero E6 cell cytotoxicity, dose response, cytotoxicity control for non-replicating M. tuberculosis project, secondary assay (AID 492998). It counts as functional, VeroE6. The note with it: Vero C1008.
A short description of the next assay: cells. Format: functional.
Assay [8] addresses T1, Serine/threonine-protein phosphatase. Briefly: blockers of CaCl2-induced CDRE-lacZ signaling – S. cerevisiae, luminescence, secondary, dose response (AID 2388).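 Also: yeast reporter cells carrying a calcineurin-responsive lacZ construct stimulated with calcium chloride; luminescent beta-galactosidase reporter signal in whole cells rather than isolated phosphatase activity; potency for inhibition where a drop in reporter signal means calcineurin blockade.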 Format: functional, cell-based.
Assay [9] in a line: THP-1 cell cytotoxicity, dose response, cytotoxicity control for non-replicating M. tuberculosis project (AID 489025). It counts as functional.
For assay [10], the target named is T3, Orexin/Hypocretin receptor type 1 (Homo sapiens, UniProt O43613).
T3 sequence (O43613 whole entry): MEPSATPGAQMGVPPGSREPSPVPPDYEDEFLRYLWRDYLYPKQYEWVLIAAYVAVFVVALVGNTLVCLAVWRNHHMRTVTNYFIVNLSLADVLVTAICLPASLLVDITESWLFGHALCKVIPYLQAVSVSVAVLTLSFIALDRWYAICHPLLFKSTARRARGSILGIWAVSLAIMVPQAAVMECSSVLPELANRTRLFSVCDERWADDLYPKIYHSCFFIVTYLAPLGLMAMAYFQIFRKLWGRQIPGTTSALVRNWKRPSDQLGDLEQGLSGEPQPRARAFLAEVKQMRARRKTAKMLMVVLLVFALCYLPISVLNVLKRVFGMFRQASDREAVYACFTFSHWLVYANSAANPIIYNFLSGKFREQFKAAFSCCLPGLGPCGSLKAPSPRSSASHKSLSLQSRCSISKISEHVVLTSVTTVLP
Kind of assay: Homogeneous Time Resolved Fluorescence (HTRF)-based cell-based high throughput dose response assay for antagonists of the orexin 1 receptor (OX1R; HCRTR1). [Related pubchem assays (depositor defined):AID434989, AID435008, AID463079, AID485270, AID492963, AID492964, AID492965, AID493232, AID504717, AID504718]. It counts as functional. On the technique in general: Time-resolved FRET reads energy transfer from a long-lived donor to a nearby acceptor.

A further assay relates to Streptococcus. Kind of assay: GAS UMAA2166 growth inhibition – luminescence, BacTiterGlo, counter-screen for streptokinase expression inhibitor project, dose response (AID 1915).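 Also: potency for reduction of bacterial viability or growth.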 It counts as functional, organism-based. In general terms: A counterscreen serves to expose hits that act by an unwanted route or on another target.
In assay [11] the test system is Streptococcus sp. 'group A'. Kind of assay: Streptococcus pyogenes SK(-)GAS viability under kanamycin – luminescence, BacTiterGlo, confirmation, counter-screen for streptokinase expression inhibitor project, dose response (AID 1900). Format: functional, organism-based.
The nature of assay [12]: viability loss of HMLE_sh_eGFP cells – cell-based, luminescence, counter-screen for HMLE_sh_ECad selective toxicity project, dose response (AID 463074).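 Also: HMLE human mammary epithelial cells expressing control shRNA against eGFP.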 It counts as functional, Homo sapiens.
Assay [13] is described as follows: Counterscreen for antagonists of the orexin 1 receptor (OX1R; HCRTR1): Fluorescence-based cell-based high throughput dose response assay to identify antagonists of the parental CHO cell line. [Related pubchem assays (depositor defined):AID434989, AID435008, AID463079, AID485270, AID492963, AID492964, AID492965, AID493232, AID504699, AID504701]. Format: functional.

The next assay relates to CHO-K1. Kind of assay: Counterscreen for antagonists of the orexin 1 receptor (OX1R; HCRTR1): Homogeneous time resolved fluorescence (HTRF)-based cell-based dose response assay to identify antagonists of the parental CHO-K1 cell line. [Related pubchem assays (depositor defined):AID434989, AID435008, AID463079, AID485270, AID492963, AID492964, AID492965, AID493232, AID504699, AID504701]. It counts as functional. To be noted: Cricetulus griseus.

In the next assay the target is T4, Streptokinase A (Streptococcus pyogenes serotype M1, UniProt P10520).
T4 sequence (P10520 whole entry): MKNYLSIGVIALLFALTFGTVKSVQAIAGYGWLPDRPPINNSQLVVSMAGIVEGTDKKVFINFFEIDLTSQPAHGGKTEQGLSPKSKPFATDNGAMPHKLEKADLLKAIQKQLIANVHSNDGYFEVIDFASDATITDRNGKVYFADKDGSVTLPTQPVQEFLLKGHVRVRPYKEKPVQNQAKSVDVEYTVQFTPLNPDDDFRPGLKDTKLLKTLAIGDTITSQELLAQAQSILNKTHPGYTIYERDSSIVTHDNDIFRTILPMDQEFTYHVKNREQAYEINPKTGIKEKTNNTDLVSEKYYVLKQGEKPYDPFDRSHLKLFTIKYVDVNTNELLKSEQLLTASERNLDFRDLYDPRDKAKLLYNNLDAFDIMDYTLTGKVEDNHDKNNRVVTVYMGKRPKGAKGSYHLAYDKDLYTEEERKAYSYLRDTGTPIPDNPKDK
Kind of assay: viability-normalized secreted streptokinase activity reduction – plasminogen activation absorbance, OD405, dose response (AID 1914).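 Also: secreted streptokinase activity via plasminogen activation per viability signal from cell pellet.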 Format: functional, Streptococcus pyogenes M1 GAS.

The target of assay [14] is T5, Orexin receptor type 2 (Homo sapiens, UniProt O43614).
T5 sequence (O43614 whole entry): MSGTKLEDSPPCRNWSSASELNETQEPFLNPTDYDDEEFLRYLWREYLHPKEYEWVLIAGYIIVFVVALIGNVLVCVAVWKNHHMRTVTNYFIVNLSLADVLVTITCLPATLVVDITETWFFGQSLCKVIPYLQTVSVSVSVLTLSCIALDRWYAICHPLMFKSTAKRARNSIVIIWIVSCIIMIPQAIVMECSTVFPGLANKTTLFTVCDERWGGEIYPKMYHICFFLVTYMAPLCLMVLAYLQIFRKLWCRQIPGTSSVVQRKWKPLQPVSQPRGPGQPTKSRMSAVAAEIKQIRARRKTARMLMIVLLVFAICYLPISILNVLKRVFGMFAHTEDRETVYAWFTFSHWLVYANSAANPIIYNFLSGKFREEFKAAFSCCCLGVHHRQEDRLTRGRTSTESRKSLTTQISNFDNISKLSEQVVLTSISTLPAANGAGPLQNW
Briefly: Counterscreen assay for antagonists of the orexin 1 receptor (OX1R; HCRTR1): Fluorescence-based cell-based dose response assay for antagonists of the orexin 2 receptor (OX2R; HCRTR2), run by assay provider. Format: functional.

The target of assay [15] is T5, Orexin receptor type 2. Kind of assay: Counterscreen assay for antagonists of the orexin 1 receptor (OX1R; HCRTR1): Homogeneous Time Resolved Fluorescence (HTRF)-based cell-based dose response assay for antagonists of the orexin 2 receptor (OX2R; HCRTR2), run by assay provider. Format: functional.
Assay [16] concerns the target T3, Orexin/Hypocretin receptor type 1. Kind of assay: Fluorescence-based cell-based high throughput dose response assay for antagonists of the orexin 1 receptor (OX1R; HCRTR1). [Related pubchem assays (depositor defined):AID434989, AID435008, AID463079, AID485270, AID492963, AID492964, AID492965, AID493232, AID504717, AID504718]. It counts as functional.
Assay [17] can be described thus: Luminescence Cell-Based Dose Retest to Confirm Inhibitors of Cancer Stem Cells. [Related pubchem assays (depositor defined):AID2717, AID2721]. Format: functional. To be noted: Homo sapiens.
For assay [18], the target named is UDP-galactopyranose mutase (Mycobacterium tuberculosis, UniProt P9WIQ1). Kind of assay: Inhibitors of Mycobacterium tuberculosis UDP-galactopyranose mutase (UGM) enzyme Measured in Biochemical System Using Plate Reader - 2105-02_Inhibitor_Dose_CherryPick_Activity. [Related pubchem assays (depositor defined):AID504439].
The next assay concerns the target ORF 73 (Human herpesvirus 8, UniProt O40947). Briefly: KSHV LANA DNA-binding disruption – biochemical, fluorescence polarization, cherry-picked samples, dose response (AID 504725).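 Also: fluorescence polarization of a labeled DNA duplex reporting LANA DNA binding; potency is for inhibitors that block LANA binding to the DNA.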 Details: species or system Human gammaherpesvirus 8.
The next assay relates to Salmon testes DNA. Kind of assay: acridine orange-DNA binding displacement – biochemical, fluorescence polarization, cherry-picked samples, set 2, artefact control for KSHV LANA DNA-binding inhibitor project, dose response (AID 504727). Details: species or system Salmonidae.

The record followed here is ChEMBL document CHEMBL1201862, “PubChem BioAssay data set” (2004).

Active and inactive are the calls of the source.

What is called CC50 is the concentration giving 50% cytotoxicity. The EC50 is the concentration giving half of the maximal effect. As usually defined, the IC50 is the concentration that gives 50% inhibition. For orientation: AC50 means the concentration at which the activity in the assay is half-maximal.

Sequence of ORF 73 (O40947 whole entry): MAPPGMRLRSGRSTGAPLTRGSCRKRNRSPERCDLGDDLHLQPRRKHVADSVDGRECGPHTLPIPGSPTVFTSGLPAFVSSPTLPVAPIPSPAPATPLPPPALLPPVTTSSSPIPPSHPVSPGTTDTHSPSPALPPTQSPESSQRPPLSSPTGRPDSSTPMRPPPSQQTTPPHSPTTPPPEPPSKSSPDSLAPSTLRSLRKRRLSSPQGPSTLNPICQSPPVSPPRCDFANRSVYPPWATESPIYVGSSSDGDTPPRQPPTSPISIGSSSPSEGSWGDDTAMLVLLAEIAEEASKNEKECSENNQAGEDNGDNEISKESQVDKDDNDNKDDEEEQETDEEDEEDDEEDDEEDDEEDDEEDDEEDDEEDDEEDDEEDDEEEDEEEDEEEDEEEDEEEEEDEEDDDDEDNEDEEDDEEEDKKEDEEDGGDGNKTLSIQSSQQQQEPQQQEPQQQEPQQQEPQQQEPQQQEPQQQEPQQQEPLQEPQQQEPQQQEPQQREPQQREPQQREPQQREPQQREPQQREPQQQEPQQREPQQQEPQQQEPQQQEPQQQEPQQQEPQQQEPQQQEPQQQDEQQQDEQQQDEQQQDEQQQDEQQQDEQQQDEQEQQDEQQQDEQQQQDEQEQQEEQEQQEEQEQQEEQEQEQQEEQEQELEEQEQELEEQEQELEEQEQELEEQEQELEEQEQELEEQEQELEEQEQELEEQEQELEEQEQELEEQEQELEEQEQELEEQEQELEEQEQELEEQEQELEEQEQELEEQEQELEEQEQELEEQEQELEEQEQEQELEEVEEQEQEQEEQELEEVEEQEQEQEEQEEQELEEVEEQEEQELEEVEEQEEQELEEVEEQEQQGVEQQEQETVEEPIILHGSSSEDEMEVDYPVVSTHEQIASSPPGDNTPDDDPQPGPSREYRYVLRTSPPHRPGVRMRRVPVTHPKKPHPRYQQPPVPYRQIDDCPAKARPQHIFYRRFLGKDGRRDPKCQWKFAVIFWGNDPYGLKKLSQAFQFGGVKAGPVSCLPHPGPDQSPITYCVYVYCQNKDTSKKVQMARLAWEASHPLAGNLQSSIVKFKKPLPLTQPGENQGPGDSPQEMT
Sequence of ATP-dependent molecular chaperone HSP82 (C4YTQ8 whole entry): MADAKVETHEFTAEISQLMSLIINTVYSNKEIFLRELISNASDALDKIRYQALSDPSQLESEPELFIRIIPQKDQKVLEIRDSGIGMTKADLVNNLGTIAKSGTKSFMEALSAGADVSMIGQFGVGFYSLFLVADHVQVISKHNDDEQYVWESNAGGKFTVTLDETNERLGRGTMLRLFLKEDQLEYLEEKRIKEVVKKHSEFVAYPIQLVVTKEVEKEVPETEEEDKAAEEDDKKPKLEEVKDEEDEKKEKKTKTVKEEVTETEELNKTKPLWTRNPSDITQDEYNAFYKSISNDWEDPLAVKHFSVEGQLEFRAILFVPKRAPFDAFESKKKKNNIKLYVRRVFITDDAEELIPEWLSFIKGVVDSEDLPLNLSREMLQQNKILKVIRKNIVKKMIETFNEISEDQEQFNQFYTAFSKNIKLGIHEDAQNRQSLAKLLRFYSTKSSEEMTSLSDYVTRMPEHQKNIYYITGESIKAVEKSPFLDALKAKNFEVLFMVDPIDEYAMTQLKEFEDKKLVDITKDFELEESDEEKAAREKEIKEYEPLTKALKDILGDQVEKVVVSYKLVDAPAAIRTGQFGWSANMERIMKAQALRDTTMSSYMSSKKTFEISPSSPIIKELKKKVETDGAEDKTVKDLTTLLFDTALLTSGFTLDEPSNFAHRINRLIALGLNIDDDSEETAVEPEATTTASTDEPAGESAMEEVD
Sequence of UDP-galactopyranose mutase (P9WIQ1 whole entry): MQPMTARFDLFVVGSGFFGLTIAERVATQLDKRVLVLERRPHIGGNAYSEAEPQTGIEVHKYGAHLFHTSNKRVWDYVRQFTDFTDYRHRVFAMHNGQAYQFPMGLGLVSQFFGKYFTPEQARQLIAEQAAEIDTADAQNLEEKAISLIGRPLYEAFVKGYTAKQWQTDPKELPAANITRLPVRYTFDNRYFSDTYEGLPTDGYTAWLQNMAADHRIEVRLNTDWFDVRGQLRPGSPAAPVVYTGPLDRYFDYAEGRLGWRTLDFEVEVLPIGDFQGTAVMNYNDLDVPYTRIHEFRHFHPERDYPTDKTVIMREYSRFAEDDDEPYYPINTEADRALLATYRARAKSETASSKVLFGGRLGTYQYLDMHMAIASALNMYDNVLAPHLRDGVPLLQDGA

Turning to `O=c1c2cc(Br)ccc2nc(-c2cccc(C(F)(F)F)c2)n1O`, the CC50 in [1] was 15.8 µM (active); in [7] it was 11.6 µM (active); in [9], 13.9 µM (active). Moreover, the EC50 in assay [2] is 17.3 µM (active); in assay [3] it was 5.96 µM (active); in [4] it was 0.451 µM (active); in [5], 4.04 µM (active); in [6] it was 15.5 µM (inconclusive); in assay [8], 28.1 µM (active). Further, the 50% inhibitory concentration (IC50) in “cells” was 8.38 µM (active).

Take `O=c1c2ccccc2oc2cc(-c3ccc4[nH]ccc4c3)ccc12`: the IC50 in [10] is 2.71 µM (active); in assay [13], 48.8 µM (inactive); with CHO-K1, > 66.3 µM (inactive); on Orexin receptor type 2 [14], 40 µM (inactive); on Orexin receptor type 2 [15], > 50 µM (inactive); in assay [16], 6.96 µM (active). Besides, the EC50 with Streptococcus is > 150 µM (not active); in assay [11] it was 8.57 µM (active); on Streptokinase A it was > 150 µM (not active). Further, the values for the AC50 in assay [12] and in assay [17] were 0.29 µM (inconclusive) and 0.255 µM (active), respectively.

Turning to `Cn1cc(/C=C2\C(=O)NC(=O)N(c3ccccc3)C2=O)c2ccccc21`, the AC50 in assay [18] was 71.9 µM (active); on ORF 73 it was 41.3 µM (active); in the assay on Salmon testes DNA it was 92.2 µM (active).
